Laboratory results from patent publication US11382956B2, “Amylin analogues” (Zealand Pharma A/S, priority 2016, dated 2022).
Numbered stars: 1 amine (or outer) side, 2 acyl side, 3 side chain; on linkers, the order of the positions; unused ones are H or OH. Bridge positions count the residues as written; N and C are the ends. Square brackets hold non-standard residues; d marks the D form. Peptide text beside a SMILES is read from it. * marks the point of attachment. C20 diacid = O=C(O)CCCCCCCCCCCCCCCCCCC(=O)*; γGlu = O=C(O)[C@H](CCC(=O)[*:2])N[*:1]; Hyp = O=C(O)[C@@H]1C[C@@H](O)CN1; NMeI = CC[C@H](C)[C@H](NC)C(=O)O; Aad = N[C@@H](CCCC(=O)O)C(=O)O; Sar = CNCC(=O)O

Legend:
[1] = biological target: T1, recombinant human amylin 3 receptor (hAMYR3) (Homo sapiens, UniProt O60896+P30988); assay: hAMYR3 cAMP assay (AlphaScreen) in 1321N1 cells; assay type: cell-based; conditions: cAMP formation, 45 min stimulation
T1 construct: host or cells: human astrocytoma cell line 1321N1
T1 sequence (P30988 25-474): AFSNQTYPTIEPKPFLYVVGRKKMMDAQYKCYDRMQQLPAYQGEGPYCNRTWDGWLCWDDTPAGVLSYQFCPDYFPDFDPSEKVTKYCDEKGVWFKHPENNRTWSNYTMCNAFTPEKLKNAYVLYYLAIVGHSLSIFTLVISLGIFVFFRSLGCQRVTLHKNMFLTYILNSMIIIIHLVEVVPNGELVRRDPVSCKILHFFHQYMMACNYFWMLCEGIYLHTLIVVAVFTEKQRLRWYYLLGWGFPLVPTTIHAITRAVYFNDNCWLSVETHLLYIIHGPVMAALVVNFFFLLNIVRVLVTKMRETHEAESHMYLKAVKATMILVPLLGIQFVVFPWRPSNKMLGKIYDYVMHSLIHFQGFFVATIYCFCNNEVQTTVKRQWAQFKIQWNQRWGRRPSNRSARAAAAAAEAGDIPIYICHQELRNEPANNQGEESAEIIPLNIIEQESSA
T1 sequence (O60896 24-148 partner): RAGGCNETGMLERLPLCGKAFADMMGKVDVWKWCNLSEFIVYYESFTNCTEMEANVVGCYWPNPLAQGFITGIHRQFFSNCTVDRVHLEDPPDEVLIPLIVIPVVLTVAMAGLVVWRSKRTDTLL
Outline: (§1)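 1321N1 astrocytoma cells expressing recombinant human calcitonin receptor alone or with RAMP3 (AMY3) stimulated 45 min at room temperature with peptide in IBMX-containing buffer. cAMP quantified by AlphaScreen after 1 h bead incubation; EC50 fitted from at least 7 concentrations.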

[2] = Assessment of physical stability: fibril formation by Thioflavin T fluorescence; assay type: physicochemical; design: key: FND = fibrillation not detected; FD = fibrillation detected; conditions: 1 mg/mL peptide; for Fibrillation (in buffer) pH4 acetate: 50 mM acetate buffer pH 4.0, 96 hours at 40° C.; for Fibrillation (in buffer) pH7 histidine: 50 mM histidine buffer pH 7.0, 96 hours at 40° C.; for Fibrillation (in buffer) pH7 phosphate: 50 mM phosphate buffer pH 7.0, 96 hours at 40° C.
Outline: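 Test peptide at 1 mg/mL with 40 μM ThT in 50 mM phosphate pH 7.0, 50 mM histidine pH 7.0, or 50 mM acetate pH 4.0, in triplicate. Fluorescence read every 10 min after 300 s agitation for 96 hours at 40° C; significant intensity rise scored as fibrillation detected (FD).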

[3] = Assessment of chemical stability in 40 mM buffers at 40° C. (RP-HPLC); assay type: physicochemical; conditions: 1 mg/mL; for % degradation after 72 h at 40° C. pH4 acetate: acetate buffer pH 4, 72 h; for % degradation after 14 days at 40° C. pH4 acetate: acetate buffer pH 4, 14 days; for % degradation after 72 h at 40° C. pH6 phosphate: phosphate buffer pH 6, 72 h; for % degradation after 14 days at 40° C. pH6 phosphate: phosphate buffer pH 6, 14 days; for % degradation after 72 h at 40° C. pH7 phosphate: phosphate buffer pH 7, 72 h; for % degradation after 14 days at 40° C. pH7 phosphate: phosphate buffer pH 7, 14 days
Outline: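 Peptides at 1 mg/mL in 40 mM acetate pH 4 or phosphate pH 6 and 7 were held at 40° C for 3 and 14 days. Main-peak area-% by C8 RP-HPLC, UV 220 nm; % degradation = change in main-peak area-% versus t=0.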

[4] = biological target: T2, recombinant human calcitonin receptor (hCT-R) (Homo sapiens, UniProt P30988); assay: hCT-R cAMP assay (AlphaScreen) in 1321N1 cells; assay type: cell-based; conditions: cAMP formation, 45 min stimulation
T2 construct: host or cells: human astrocytoma cell line 1321N1
T2 sequence (P30988 25-474): T1 sequence (P30988 25-474)
Outline: as §1

Structure (SMILES) | EC50 [1] | Fibrillation (in buffer) pH4 acetate [2] | Fibrillation (in buffer) pH7 histidine [2] | Fibrillation (in buffer) pH7 phosphate [2] | % degradation after 72 h at 40° C. pH4 acetate [3] | % degradation after 14 days at 40° C. pH4 acetate [3] | % degradation after 72 h at 40° C. pH6 phosphate [3] | % degradation after 14 days at 40° C. pH6 phosphate [3] | % degradation after 72 h at 40° C. pH7 phosphate [3] | % degradation after 14 days at 40° C. pH7 phosphate [3] | EC50 [4]
CC[C@H](C)[C@@H](C(=O)N[C@@H](CC(C)C)C(=O)N[C@@H](CO)C(=O)N[C@@H](CO)C(=O)N[C@H](C(=O)N[C@@H](CCC(=O)O)C(=O)N[C@H](C(=O)NCC(=O)N[C@@H](CO)C(=O)N[C@@H](CC(N)=O)C(=O)N[C@H](C(=O)N1C[C@H](O)C[C@H]1C(N)=O)[C@@H](C)O)C(C)C)[C@@H](C)O)N(C)C(=O)[C@H](C)NC(=O)CN(C)C(=O)[C@H](Cc1ccccc1)NC(=O)CNC(=O)CNC(=O)[C@H](CCCNC(=N)N)NC(=O)[C@H](CCC(N)=O)NC(=O)[C@H](CC(C)C)NC(=O)[C@H](Cc1ccccc1)NC(=O)[C@H](CCCC(=O)O)NC(=O)[C@H](C)NC(=O)[C@H](CC(C)C)NC(=O)[C@H](CCCNC(=N)N)NC(=O)[C@H](CCC(=O)O)NC(=O)[C@@H](NC(=O)[C@H](C)NC(=O)[C@@H]1CCCCNC(=O)C[C@H](NC(=O)[C@H](CCCNC(=N)N)NC(=O)CC[C@H](NC(=O)CCCCCCCCCCCCCCCCCCC(=O)O)C(=O)O)C(=O)NCC(=O)N[C@@H]([C@@H](C)O)C(=O)N[C@@H](C)C(=O)N[C@@H]([C@@H](C)O)C(=O)N1)[C@@H](C)O [Compound 32, [19CD]-isoGlu-RD()GTATK()ATERLA-Aad-FLQRGGF-Gly(Me)-A-Ile(Me)-LSSTEVGSNT-Hyp-NH2] ({C20 diacid-γGlu}-RDGTATKATERLA[Aad]FLQRGGF[Sar]A[NMeI]LSSTEVGSNT[Hyp]-NH2; lactam 2-7) | 5 pM | FD | FND | FND | 1.3% | <1% | <1% | <1% | 2.2% | <1% | 6 pM
CC[C@H](C)[C@@H](C(=O)N[C@@H](CC(C)C)C(=O)N[C@@H](CO)C(=O)N[C@@H](CO)C(=O)N[C@H](C(=O)N[C@@H](CCC(=O)O)C(=O)N[C@H](C(=O)NCC(=O)N[C@@H](CO)C(=O)N[C@@H](CC(N)=O)C(=O)N[C@H](C(=O)N1C[C@H](O)C[C@H]1C(N)=O)[C@@H](C)O)C(C)C)[C@@H](C)O)N(C)C(=O)[C@H](C)NC(=O)CN(C)C(=O)[C@H](Cc1ccccc1)NC(=O)[C@H](CC(N)=O)NC(=O)[C@H](C)NC(=O)[C@H](CCCNC(=N)N)NC(=O)[C@H](CCC(N)=O)NC(=O)[C@H](CC(C)C)NC(=O)[C@H](Cc1ccccc1)NC(=O)[C@H](CCCC(=O)O)NC(=O)[C@H](C)NC(=O)[C@H](CC(C)C)NC(=O)[C@H](CCCNC(=N)N)NC(=O)[C@H](CCC(=O)O)NC(=O)[C@@H](NC(=O)[C@H](C)NC(=O)[C@@H]1CCCCNC(=O)C[C@H](NC(=O)[C@H](CCCNC(=N)N)NC(=O)CC[C@H](NC(=O)CCCCCCCCCCCCCCCCCCC(=O)O)C(=O)O)C(=O)NCC(=O)N[C@@H]([C@@H](C)O)C(=O)N[C@@H](C)C(=O)N[C@@H]([C@@H](C)O)C(=O)N1)[C@@H](C)O [Compound 33, [19CD]-isoGlu-RD()GTATK()ATERLA-Aad-FLQRANF-Gly(Me)-A-Ile(Me)-LSSTEVGSNT-Hyp-NH2] ({C20 diacid-γGlu}-RDGTATKATERLA[Aad]FLQRANF[Sar]A[NMeI]LSSTEVGSNT[Hyp]-NH2; lactam 2-7) | 9 pM | FND | FND | FND | <1% | – | 1% | – | <1% | – | 19 pM
CC[C@H](C)[C@@H](C(=O)N1CCC[C@H]1C(=O)N[C@@H](CO)C(=O)N[C@@H](CO)C(=O)N[C@H](C(=O)N[C@@H](CCC(=O)O)C(=O)N[C@H](C(=O)NCC(=O)N[C@@H](CO)C(=O)N[C@@H](CC(N)=O)C(=O)N[C@H](C(=O)N1C[C@H](O)C[C@H]1C(N)=O)[C@@H](C)O)C(C)C)[C@@H](C)O)N(C)C(=O)[C@H](C)NC(=O)CN(C)C(=O)[C@H](Cc1ccccc1)NC(=O)[C@H](CO)NC(=O)[C@H](CO)NC(=O)[C@H](CCCNC(=N)N)NC(=O)[C@H](CCC(N)=O)NC(=O)[C@H](CC(C)C)NC(=O)[C@H](Cc1ccccc1)NC(=O)[C@H](CCCC(=O)O)NC(=O)[C@H](C)NC(=O)[C@H](CC(C)C)NC(=O)[C@H](CCCNC(=N)N)NC(=O)[C@H](CCC(=O)O)NC(=O)[C@@H](NC(=O)[C@H](C)NC(=O)[C@@H]1CCCCNC(=O)C[C@H](NC(=O)[C@H](CCCNC(=N)N)NC(=O)CC[C@H](NC(=O)CCCCCCCCCCCCCCCCCCC(=O)O)C(=O)O)C(=O)NCC(=O)N[C@@H]([C@@H](C)O)C(=O)N[C@@H](C)C(=O)N[C@@H]([C@@H](C)O)C(=O)N1)[C@@H](C)O [Compound 34, [19CD]-isoGlu-RD()GTATK()ATERLA-Aad-FLQRSSF-Gly(Me)-A-Ile(Me)-PSSTEVGSNT-Hyp-NH2] ({C20 diacid-γGlu}-RDGTATKATERLA[Aad]FLQRSSF[Sar]A[NMeI]PSSTEVGSNT[Hyp]-NH2; lactam 2-7) | 63 pM | FND | FND | FND | <1% | – | <1% | – | 2.8% | – | 206 pM
CC[C@H](C)[C@@H](C(=O)N[C@@H](CC(C)C)C(=O)N[C@@H](CO)C(=O)N[C@@H](CO)C(=O)N[C@H](C(=O)N[C@@H](CCC(=O)O)C(=O)N[C@H](C(=O)NCC(=O)N[C@@H](CO)C(=O)N[C@@H](CC(N)=O)C(=O)N[C@H](C(=O)N1C[C@H](O)C[C@H]1C(N)=O)[C@@H](C)O)C(C)C)[C@@H](C)O)N(C)C(=O)[C@H](C)NC(=O)CN(C)C(=O)[C@H](Cc1ccccc1)NC(=O)[C@H](CO)NC(=O)[C@H](CO)NC(=O)[C@H](CCCNC(=N)N)NC(=O)[C@H](CCC(N)=O)NC(=O)[C@H](CC(C)C)NC(=O)[C@H](Cc1ccccc1)NC(=O)[C@H](CCCC(=O)O)NC(=O)[C@H](C)NC(=O)[C@H](CC(C)C)NC(=O)[C@H](CCCNC(=N)N)NC(=O)[C@H](CCC(=O)O)NC(=O)[C@@H](NC(=O)[C@H](C)NC(=O)[C@@H]1CSSC[C@H](NC(=O)[C@H](CCCNC(=N)N)NC(=O)CC[C@H](NC(=O)CCCCCCCCCCCCCCCCCCC(=O)O)C(=O)O)C(=O)NCC(=O)N[C@@H]([C@@H](C)O)C(=O)N[C@@H](C)C(=O)N[C@@H]([C@@H](C)O)C(=O)N1)[C@@H](C)O [Ref. 4, [19CD]-isoGlu-RC()GTATC()ATERLA-Aad-FLQRSSF-Sar-A-Ile(Me)-LSSTEVGSNT-Hyp-NH2, reference compound] ({C20 diacid-γGlu}-RCGTATCATERLA[Aad]FLQRSSF[Sar]A[NMeI]LSSTEVGSNT[Hyp]-NH2; disulfide 2-7) | 31 pM | FND | FND | FND | – | 3.2% | – | 12.6% | – | 20.3% | 75 pM
